According to PubChem BioAssay (NCI):
Several values for one entry are separate records, joined by “and”; a condition that tells them apart may be missing. Identical values can stand only once.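 48-hour exposure; five concentrations; linearly interpolated endpoints. GI50: concentration for 50% inhibition of growth. TGI: concentration producing complete growth inhibition.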

Experiments:
Assay in all cases: NCI tumour cell line growth inhibition, 48 h
786-0 renal = tested on: 786-0 renal
A498 renal = tested on: A498 renal
A549 NSCLC = tested on: A549 NSCLC
ACHN renal = tested on: ACHN renal
CAKI-1 renal = tested on: CAKI-1 renal
CCRF-CEM leukemia = tested on: CCRF-CEM leukemia
COLO 205 colon = tested on: COLO 205 colon
DLD-1 colon = tested on: DLD-1 colon
DMS 114 small cell lung = tested on: DMS 114 small cell lung
DMS 273 small cell lung = tested on: DMS 273 small cell lung
EKVX NSCLC = tested on: EKVX NSCLC
HCC-2998 colon = tested on: HCC-2998 colon
HCT-116 colon = tested on: HCT-116 colon
HCT-15 colon = tested on: HCT-15 colon
HL-60(TB) leukemia = tested on: HL-60(TB) leukemia
HOP-18 NSCLC = tested on: HOP-18 NSCLC
HOP-62 NSCLC = tested on: HOP-62 NSCLC
HOP-92 NSCLC = tested on: HOP-92 NSCLC
HT29 colon = tested on: HT29 colon
IGROV1 ovarian = tested on: IGROV1 ovarian
K-562 leukemia = tested on: K-562 leukemia
KM12 colon = tested on: KM12 colon
KM20L2 colon = tested on: KM20L2 colon
LOX IMVI melanoma = tested on: LOX IMVI melanoma
LXFL 529 NSCLC = tested on: LXFL 529 NSCLC
M14 melanoma = tested on: M14 melanoma
M19-MEL melanoma = tested on: M19-MEL melanoma
MALME-3M melanoma = tested on: MALME-3M melanoma
MOLT-4 leukemia = tested on: MOLT-4 leukemia
NCI-H226 lung = tested on: NCI-H226 lung
NCI-H23 lung = tested on: NCI-H23 lung
NCI-H460 lung = tested on: NCI-H460 lung
NCI-H522 lung = tested on: NCI-H522 lung
OVCAR-3 ovarian = tested on: OVCAR-3 ovarian
OVCAR-4 ovarian = tested on: OVCAR-4 ovarian
OVCAR-5 ovarian = tested on: OVCAR-5 ovarian
OVCAR-8 ovarian = tested on: OVCAR-8 ovarian
RPMI-8226 leukemia = tested on: RPMI-8226 leukemia
RXF-631 renal = tested on: RXF-631 renal
SF-268 CNS = tested on: SF-268 CNS
SF-295 CNS = tested on: SF-295 CNS
SF-539 CNS = tested on: SF-539 CNS
SK-MEL-2 melanoma = tested on: SK-MEL-2 melanoma
SK-MEL-28 melanoma = tested on: SK-MEL-28 melanoma
SK-MEL-5 melanoma = tested on: SK-MEL-5 melanoma
SK-OV-3 ovarian = tested on: SK-OV-3 ovarian
SN12C renal = tested on: SN12C renal
SNB-19 CNS = tested on: SNB-19 CNS
SNB-75 CNS = tested on: SNB-75 CNS
SNB-78 CNS = tested on: SNB-78 CNS
SR leukemia = tested on: SR leukemia
SW-620 colon = tested on: SW-620 colon
TK-10 renal = tested on: TK-10 renal
U251 CNS = tested on: U251 CNS
UACC-257 melanoma = tested on: UACC-257 melanoma
UACC-62 melanoma = tested on: UACC-62 melanoma
UO-31 renal = tested on: UO-31 renal
XF 498 CNS = tested on: XF 498 CNS
BT-549 breast = tested on: BT-549 breast
DU-145 prostate = tested on: DU-145 prostate
HS 578T breast = tested on: HS 578T breast
MCF7 breast = tested on: MCF7 breast
MDA-MB-231 breast = tested on: MDA-MB-231 breast
MDA-MB-435 = tested on: MDA-MB-435
MDA-N = tested on: MDA-N
NCI/ADR-RES ovarian = tested on: NCI/ADR-RES ovarian
P388 leukemia = tested on: P388 leukemia
P388/ADR leukemia = tested on: P388/ADR leukemia
PC-3 prostate = tested on: PC-3 prostate
SN12K1 renal = tested on: SN12K1 renal
T-47D breast = tested on: T-47D breast

## COc1cc2c(cc1OC)CC(=O)Nc1cc(OC)c(OC)cc1CC2
786-0 renal
  TGI: > 100 µM
A498 renal
  TGI: > 100 µM
A549 NSCLC
  TGI: > 100 µM
ACHN renal
  TGI: > 100 µM
CAKI-1 renal
  TGI: > 100 µM
CCRF-CEM leukemia
  TGI: > 100 µM
COLO 205 colon
  TGI: > 100 µM
DLD-1 colon
  TGI: > 100 µM
DMS 114 small cell lung
  TGI: 91.9 µM
DMS 273 small cell lung
  TGI: > 100 µM
EKVX NSCLC
  TGI: > 100 µM
HCC-2998 colon
  TGI: > 100 µM
HCT-116 colon
  TGI: > 100 µM
HCT-15 colon
  TGI: > 100 µM
HL-60(TB) leukemia
  TGI: 64.3 µM
HOP-18 NSCLC
  TGI: > 100 µM
HOP-62 NSCLC
  TGI: > 100 µM
HOP-92 NSCLC
  TGI: > 100 µM
HT29 colon
  TGI: > 100 µM
IGROV1 ovarian
  TGI: > 100 µM
K-562 leukemia
  TGI: > 100 µM
KM12 colon
  TGI: > 100 µM
KM20L2 colon
  TGI: > 100 µM
LOX IMVI melanoma
  TGI: > 100 µM
LXFL 529 NSCLC
  TGI: > 100 µM
M14 melanoma
  TGI: > 100 µM
M19-MEL melanoma
  TGI: > 100 µM
MALME-3M melanoma
  TGI: 99 µM
MOLT-4 leukemia
  TGI: > 100 µM
NCI-H226 lung
  TGI: > 100 µM
NCI-H23 lung
  TGI: > 100 µM
NCI-H460 lung
  TGI: > 100 µM
NCI-H522 lung
  TGI: 47.5 µM
OVCAR-3 ovarian
  TGI: > 100 µM
OVCAR-4 ovarian
  TGI: > 100 µM
OVCAR-5 ovarian
  TGI: > 100 µM
OVCAR-8 ovarian
  TGI: > 100 µM
RPMI-8226 leukemia
  TGI: > 20 µM
RXF-631 renal
  TGI: > 100 µM
SF-268 CNS
  TGI: > 100 µM
SF-295 CNS
  TGI: > 100 µM
SF-539 CNS
  TGI: 97.2 µM
SK-MEL-2 melanoma
  TGI: > 100 µM
SK-MEL-28 melanoma
  TGI: > 100 µM
SK-MEL-5 melanoma
  TGI: 71 µM
SK-OV-3 ovarian
  TGI: > 100 µM
SN12C renal
  TGI: > 100 µM
SNB-19 CNS
  TGI: > 100 µM
SNB-75 CNS
  TGI: > 100 µM
SNB-78 CNS
  TGI: > 100 µM
SR leukemia
  TGI: > 43.7 µM
SW-620 colon
  TGI: > 100 µM
TK-10 renal
  TGI: > 100 µM
U251 CNS
  TGI: > 100 µM
UACC-257 melanoma
  TGI: > 100 µM
UACC-62 melanoma
  TGI: > 100 µM
UO-31 renal
  TGI: > 100 µM
XF 498 CNS
  TGI: > 100 µM

## COc1cc2c(c(OC)c1OC)-c1ccc(OC)c(=O)cc1[C@@H](NC(C)=O)CC2
786-0 renal
  TGI: > 100 µM
A549 NSCLC
  TGI: > 100 µM
ACHN renal
  TGI: > 100 µM
BT-549 breast
  TGI: > 70.9 µM
DLD-1 colon
  GI50: 0.0176 µM
  TGI: > 625 µM
DMS 114 small cell lung
  TGI: 0.0724 µM
DU-145 prostate
  TGI: 0.0538 µM
EKVX NSCLC
  GI50: 16.7 µM
  TGI: > 625 µM
HCC-2998 colon
  TGI: 1.01 µM and 7.43 µM
HCT-116 colon
  GI50: < 0.01 µM and 0.0625 µM
HCT-15 colon
  TGI: > 100 µM and 25.8 µM and 50.4 µM
HOP-62 NSCLC
  GI50: 0.866 µM
  TGI: > 625 µM
HS 578T breast
  TGI: > 100 µM
IGROV1 ovarian
  TGI: > 100 µM
KM20L2 colon
  GI50: 0.00285 µM and 0.018 µM
  TGI: 0.00625 µM and 0.036 µM and < 0.0625 µM
LOX IMVI melanoma
  TGI: > 100 µM
M14 melanoma
  TGI: > 100 µM and 32 µM
M19-MEL melanoma
  TGI: > 522 µM
MALME-3M melanoma
  GI50: 4.33 µM and 1.35 µM
MCF7 breast
  GI50: < 0.01 µM and 0.00342 µM and < 0.0114 µM
MDA-MB-231 breast
  GI50: 7.13 µM
  TGI: > 100 µM
MDA-MB-435
  TGI: < 0.01 µM
MDA-N
  TGI: 0.833 µM
MOLT-4 leukemia
  GI50: < 0.01 µM and 0.0352 µM and 0.0625 µM
NCI-H460 lung
  GI50: 0.625 µM
NCI/ADR-RES ovarian
  GI50: 0.488 µM
OVCAR-4 ovarian
  TGI: > 100 µM
OVCAR-5 ovarian
  GI50: > 578 µM
  TGI: > 625 µM
OVCAR-8 ovarian
  GI50: 1.35 µM
  TGI: > 100 µM
P388 leukemia
  TGI: 2.7 µM
P388/ADR leukemia
  TGI: 55.9 µM
PC-3 prostate
  TGI: > 100 µM
RPMI-8226 leukemia
  TGI: > 100 µM and 217 µM
RXF-631 renal
  TGI: > 91.2 µM
SK-MEL-2 melanoma
  GI50: 0.48 µM
SK-MEL-28 melanoma
  TGI: > 625 µM
SN12C renal
  TGI: > 100 µM and > 93.4 µM and 131 µM
SN12K1 renal
  GI50: 0.00298 µM
  TGI: 0.00625 µM and < 0.0625 µM
SR leukemia
  GI50: < 0.01 µM
  TGI: > 100 µM
SW-620 colon
  TGI: > 394 µM
T-47D breast
  GI50: > 100 µM
  TGI: > 100 µM
TK-10 renal
  GI50: > 100 µM
  TGI: > 100 µM
UACC-62 melanoma
  TGI: > 100 µM and > 77.4 µM and 91.7 µM
UO-31 renal
  GI50: 4.74 µM and 1.09 µM and 1.33 µM
  TGI: > 625 µM
